Laboratory results published in US20120046292A1, “[…] COMPOUND” (ASTELLAS PHARMA INC., priority 2009, published 2012).

Legend:
human DGAT1 (hDGAT1) = target: T1, human DGAT1 (hDGAT1) (Homo sapiens, UniProt O75907); assay: DGAT1 inhibitory activity test (hDGAT1-expressing Sf9 cell microsome, [14C]oleoyl-CoA, FlashPlate); format: biochemical; conditions: test substance 1, 10, 100, 1000 nM, linear regression
T1 construct: made in house; host or cells: Sf9 insect cells (Bac-to-Bac baculovirus, pFastBac1); microsomal fraction
T1 sequence (O75907 1-488): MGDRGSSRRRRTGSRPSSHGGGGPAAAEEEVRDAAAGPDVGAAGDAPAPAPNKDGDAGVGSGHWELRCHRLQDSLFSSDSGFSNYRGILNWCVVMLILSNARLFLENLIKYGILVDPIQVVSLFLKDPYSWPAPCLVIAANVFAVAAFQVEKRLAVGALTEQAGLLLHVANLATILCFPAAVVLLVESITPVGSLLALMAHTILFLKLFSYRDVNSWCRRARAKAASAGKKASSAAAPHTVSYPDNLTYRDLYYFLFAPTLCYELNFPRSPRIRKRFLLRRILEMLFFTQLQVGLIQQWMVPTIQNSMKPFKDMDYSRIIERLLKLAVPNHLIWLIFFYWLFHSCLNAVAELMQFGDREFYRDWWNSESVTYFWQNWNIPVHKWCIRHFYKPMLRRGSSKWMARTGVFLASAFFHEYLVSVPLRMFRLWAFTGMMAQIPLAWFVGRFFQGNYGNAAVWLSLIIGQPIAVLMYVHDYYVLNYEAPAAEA
Protocol: (1) Production of Bacmid-hDGAT1
A base sequence encoding a human DGAT1 (hDGAT1) (1467 bases of CDS in Genbank Accession No. NM_012079) was cloned and ligated to pFastBac™1 (Invitrogen) to produce a pFastBac1-hDGAT1. From this plasmid, an engineered baculovirus liquid (Bacmid-hDGAT1) was prepared using a Bac-to-Bac (registered trademark) Baculovirus Expression System (Invitrogen).
(2) Preparation of Sf9 Cell-Derived DGAT1-Expressing Microsomal Fraction
Sf9 cells were seeded into a 225-cm^2 Flask Angled Neck (CORNING) to a confluency of 80%, and statically cultured in an incubator at 27° C. using an EX-CELL™ 420 INSECT SERUM-FREE MEDIUM (SAFC Biosciences, Inc.). After 24 hours, the culture medium was taken out, and a liquid obtained by diluting 1.67 mL of an engineered baculovirus medium (Bacmid-hDGAT1) with 3.33 mL of an EX-CELL™ 420 INSECT SERUM-FREE MEDIUM was added thereto, and the resultant was cultured under shaking in an incubator at 27° C. for 1 hour. Thereafter, 25 mL of an EX-CELL™ 420 INSECT SERUM-FREE MEDIUM was added thereto, followed by culturing in an incubator at 27° C. for 72 hours. The infected cells were harvested, diluted with 1.5 mL of a buffer A (40 mM phosphate buffer (pH 7.2) including 100 mM sucrose and 50 mM KCl) containing a Complete Protease Inhibitor Cocktail (Roche Diagnostics K. K.), and then subjected to sonication using a SONIFER 250 (BRANSON Ultrasonic Corp.). This suspension was centrifuged at 10000×g for 5 minutes and the supernatant was recovered. This supernatant was centrifuged at 100000×g for 60 minutes and the resulting precipitate was dissolved in 600 μL of a buffer A and then subjected to sonication again, to prepare a suspension. This suspension was taken as a hDGAT1-expressing Sf9 cell microsome.
(3) DGAT1 Activity Measurement
For the DGAT1 activity, a test substance in DMSO (final DMSO concentration 2%) in which 100 mM Tris-HCl (pH 8.0), 2 mM MgCl2, 0.01% BSA, a hDGAT1-expressing Sf9 cell microsome, 200 μM dioleoyl glycerol or dipalmitoyl glycerol, 8.9 μM [^14C] oleoyl-CoA, and 1.68% acetone were added to a phospholipid FlashPlate (PerkinElmer Life Science). The reaction was carried out at 30° C. for 60 minutes, and then twice the amount (100 μL), relative to the reaction liquid, of a mixture of isopropyl alcohol:0.1 M carbonate buffer (pH 9.0) at a ratio of 1:1 was added thereto to stop the reaction. The next day, the count was measured with a TopCount microplate scintillation counter (PerkinElmer Life Science).
The count without addition of the test substance was taken as a control (TG with addition of DMSO). The count without addition of the test substance and the microsome was taken as a Blank TG. The DGAT1 inhibitory rate of the test substance was calculated by the following calculation equation:
Inhibitory Rate (%)=(TG with addition of test substance−Blank TG)÷(TG with addition of DMSO−Blank TG)×100
The DGAT1 inhibitory rates were calculated when the concentrations of the test substance in the reaction liquid were 1, 10, 100, and 1000 nM. Linear regression was performed using the inhibitory rates obtained, and a test substance concentration (IC50) required to inhibit the DGAT1 activity by 50% was calculated by an SAS 8.2 software package (SAS Institute Japan, Ltd., Tokyo, Japan).

male C57BL/6J mice = assay: Inhibitory action on increase in triglyceride (TG) by fat administration; format: in vivo; conditions: administration amount 0.3 mg/kg; fat (intralipid 20%, 10 mL/kg) orally 20 hours after dosing; plasma TG 2 hours after fat; control 0.5% methyl cellulose group
Protocol: 8- to 15-week male C57BL/6J mice were fasted for four hours, and the test substances were administered to the mice. The test substance was administered after suspending it in a 0.5% methyl cellulose solution. After 20 hours, fat (intralipid 20%, Terumo (Fresenius), 10 mL/kg) was orally administered thereto. Immediately before and after 2 hours from administration of the fat, blood was collected from the tail vein to obtain plasma. For measurement of the TG in plasma, a TG increase in the plasma by fat administration was calculated using a Triglyceride E Test Wako (Wako Pure Chemical Industries Ltd.). Using the TG increase in the plasma in a group to which 0.5% methyl cellulose had been administered as a control, the TG increase inhibitory rate when the test substance had been administered was determined.

DIO mice = assay: Anti-obesity action in DIO mice; format: in vivo; conditions: oral, once per day, administration period 2 weeks, 1 mg/kg; high-fat diet C57BL/6J mice; solvent group weight increase = 100%
Protocol: High-fat diet formula (Research Diet D12492, 60 kcal % fat) were given to 9-week male C57BL/6J mice. For acclimatization of the mice, the solvent used in the test from the 4th week was administered thereto. From the 5th week, the test substance was orally administered once or twice daily. The test substance was administered after suspending it in a 0.5% methyl cellulose solution. Administration was performed repeatedly for 2 or 4 weeks, and variation in the weights due to the test substance administration was observed. By taking the increase in the weight in the group to which the solvent had been administered within a test period as 100%, the weight increase inhibitory rate of the test substance was calculated.

SMILES	IC50 (human DGAT1 (hDGAT1))	TG increase inhibitory rate (male C57BL/6J mice)	weight increase inhibitory rate (DIO mice)
O=C(NCCNC(=O)c1ccc2ccccc2c1)c1ccc(O[C@H]2CC[C@@H](C(=O)O)CC2)cc1 [Example 83]	5.2 nM	–	–
O=C(NCCNC(=O)c1ccc(O[C@H]2CC[C@@H](C(=O)O)CC2)cc1F)c1cc2cc(F)ccc2s1 [Example 531]	0.1 nM	–	–
CCCCCC12CCC(C(=O)NCCNC(=O)c3ccc(O[C@H]4CC[C@@H](C(=O)O)CC4)cc3)(CC1)CC2 [Example 20]	2.1 nM	–	–
O=C(O)CC1CCC(c2ccc(C(=O)NCCNC(=O)c3ccc(Cl)cc3)cc2)CC1 (stereo not drawn) [Example 6, {4-[4-({2-[(4-chlorobenzoyl)amino]ethyl}carbamoyl)phenyl]cyclohexyl}acetic acid]	20 nM	–	–
O=C(NCCNC(=O)c1ccc(O[C@H]2CC[C@@H](C(=O)O)CC2)c(F)c1F)c1ccc2ccccc2c1 [Example 300]	5.6 nM	–	–
O=C(NCCNC(=O)c1ccc(O[C@H]2CC[C@@H](C(=O)O)CC2)cc1)Nc1ccccc1Cl [Example 56]	14 nM	–	–
O=C(NCCNC(=O)c1ccc(C2CC2)c(Cl)c1)c1ccc(O[C@H]2CC[C@@H](C(=O)O)CC2)c(F)c1 [Example 135]	5.8 nM	–	–
CCOc1ccc(C(=O)NCCNC(=O)c2ccc(O[C@H]3CC[C@@H](C(=O)O)CC3)nc2)cc1Cl [Example 245]	14 nM	–	–
O=C(NCCNC(=O)c1ccc(C2CC2)cc1)c1ccc(O[C@H]2CC[C@@H](C(=O)O)CC2)cc1 [Example 79]	2.3 nM	79%	–
O=C(NCCNC(=O)c1ccc(F)c(C(F)(F)F)c1)c1ccc(O[C@H]2CC[C@@H](C(=O)O)CC2)cc1 [Example 82]	9.9 nM	–	–
O=C(NCCNC(=O)c1cc(F)c(O[C@H]2CC[C@@H](C(=O)O)CC2)cc1F)c1ccc2ccccc2c1 [Example 454]	1 nM	106%	93%
O=C(NCCNC(=O)c1ccc(O[C@H]2CC[C@@H](C(=O)O)CC2)cc1)c1ccc(Oc2ccc(F)cc2)cc1 [Example 63]	0.4 nM	–	–
O=C(O)CC1CCN(c2c(F)cc(C(=O)NCCNC(=O)c3sc4ccccc4c3Cl)cc2F)CC1 [Example 604]	32 nM	–	–
O=C(O)C[C@H]1CC[C@@H](Oc2cc(F)c(C(=O)NCCNC(=O)c3ccc4ccccc4c3)cc2F)CC1 [Example 571]	1.6 nM	–	–
O=C(NCCNC(=O)c1cc2cc(OC(F)(F)F)ccc2[nH]1)c1ccc(O[C@H]2CC[C@@H](C(=O)O)CC2)cc1 [Example 148]	4.2 nM	–	–
Cc1cc(O[C@H]2CC[C@@H](C(=O)O)CC2)ccc1C(=O)NCCNC(=O)c1ccc(C(F)(F)F)cc1 [Example 187]	8.1 nM	–	–
O=C(NCCNC(=O)c1ccc(O[C@H]2CC[C@@H](C(=O)O)CC2)c(F)c1F)c1ccc(Cl)s1 [Example 490]	3.8 nM	92%	98%
CCOc1ccc(C(=O)NCCNC(=O)c2ccc(O[C@H]3CC[C@@H](C(=O)O)CC3)cc2)cc1 [Example 18]	21 nM	–	–
O=C(NCCNC(=O)N1CCC(c2ccc(Cl)cc2)CC1)c1ccc(O[C@H]2CC[C@@H](C(=O)O)CC2)c(F)c1F [Example 480]	5.2 nM	–	–
O=C(NCCNC(=O)c1ccc(O[C@H]2CC[C@@H](C(=O)O)CC2)cc1F)c1ccc2ccccc2c1 [Example 169]	2.7 nM	75%	–
Cc1cc(C(=O)NCCNC(=O)c2ccc(O[C@H]3CC[C@@H](C(=O)O)CC3)cc2)ccc1Cl [Example 106]	5.3 nM	–	–
O=C(NCCNC(=O)c1sc2ccccc2c1Cl)c1ccc(O[C@H]2CC[C@@H](C(=O)O)CC2)cc1 [Example 469]	1.7 nM	109%	–
O=C(NCCNC(=O)c1c(F)cc(O[C@H]2CC[C@@H](C(=O)O)CC2)cc1F)c1ccc2ccccc2c1 [Example 299]	6.7 nM	–	–
